In PubChem BioAssay AID1259348 (Broad Institute, 2017) one finds IC50 and z-score data, which are given here for 57 compounds.

In the experiment the target is Insulin-degrading enzyme (Homo sapiens) (UniProt P14735). Nature of the experiment: IDE catalytic activity blockers, fluorogenic substrate – biochemical, kinetic mode, counter-screen for IDE exo-site inhibitor project, dose response (AID 1259348).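 On z-score: purified IDE bound to fluorescein-labelled 6b probe FL-6b at the exo-site; probe displacement lowers polarization so hits show a drop in FP signal.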 Conditions: purified human IDE, fluorogenic decapeptide proteolysis; for z-score: measured here: primary FP probe displacement screen, stronger effect = lower value. For orientation: The purpose of a counterscreen is to sort out artefacts and off-target activity.
Sequence of Insulin-degrading enzyme (Homo sapiens) (P14735 42-1019 limits assumed): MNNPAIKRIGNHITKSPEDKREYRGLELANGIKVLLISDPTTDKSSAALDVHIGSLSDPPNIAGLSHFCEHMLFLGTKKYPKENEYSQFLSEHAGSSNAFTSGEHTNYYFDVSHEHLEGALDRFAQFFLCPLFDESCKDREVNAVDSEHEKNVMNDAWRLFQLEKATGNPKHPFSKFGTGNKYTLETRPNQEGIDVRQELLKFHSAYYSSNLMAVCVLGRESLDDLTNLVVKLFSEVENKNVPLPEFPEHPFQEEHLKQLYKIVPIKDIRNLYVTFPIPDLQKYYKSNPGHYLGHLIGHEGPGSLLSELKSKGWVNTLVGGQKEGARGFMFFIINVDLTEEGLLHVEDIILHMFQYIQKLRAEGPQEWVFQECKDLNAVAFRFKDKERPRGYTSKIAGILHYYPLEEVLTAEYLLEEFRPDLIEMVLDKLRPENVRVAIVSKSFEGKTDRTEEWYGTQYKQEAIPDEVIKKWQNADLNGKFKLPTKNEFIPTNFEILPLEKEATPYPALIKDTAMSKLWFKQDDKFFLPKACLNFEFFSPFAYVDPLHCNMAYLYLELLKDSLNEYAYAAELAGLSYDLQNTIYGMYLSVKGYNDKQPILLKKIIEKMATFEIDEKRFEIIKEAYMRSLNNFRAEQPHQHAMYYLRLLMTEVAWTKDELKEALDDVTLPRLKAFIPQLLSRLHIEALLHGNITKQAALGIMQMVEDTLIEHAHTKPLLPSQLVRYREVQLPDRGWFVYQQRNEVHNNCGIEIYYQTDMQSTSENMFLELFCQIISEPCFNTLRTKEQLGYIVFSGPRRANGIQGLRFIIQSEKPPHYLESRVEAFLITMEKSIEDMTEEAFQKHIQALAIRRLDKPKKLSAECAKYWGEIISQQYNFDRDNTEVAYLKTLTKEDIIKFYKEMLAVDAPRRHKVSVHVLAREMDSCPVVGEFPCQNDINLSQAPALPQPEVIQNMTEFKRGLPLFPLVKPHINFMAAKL

Calls of active or inactive are those of the source.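 How the source made its calls: active means any compound with an IC50 of 100 nM or lower; inactive means the rest.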

As a reminder, the IC50 is the concentration that gives 50% inhibition. With `Cc1ccccc1-c1ccc([C@H]2[C@@H](CO)N3CCCCN(S(=O)(=O)Cc4ccccc4)C[C@@H]23)cc1`, the IC50 is 44 µM and the z-score is -1.65.

Turning to `Cc1cccc(-c2ccc([C@@H]3[C@@H](CO)N4C(=O)CN(C(=O)c5cnccn5)C[C@@H]34)cc2)c1`, the 50% inhibitory concentration (IC50) is 5 µM and the z-score is -17.5.

With `Cc1ccccc1-c1ccc([C@@H]2[C@@H](CO)N3CCCCN(S(=O)(=O)c4ccc(F)cc4)C[C@@H]23)cc1`, the half-inhibitory concentration (IC50) was 0.34 µM and the z-score is -17.5.

With `O=C(CC1CC1)N1CC(=O)N2[C@H](C1)[C@H](c1ccc(C#Cc3ccccc3)cc1)[C@@H]2CO`, the IC50 is 7.1 µM and the z-score was -15.9.

On to `Cc1ccccc1-c1ccc([C@@H]2[C@@H](CO)N3CCCCN(C(=O)Cc4ccccn4)C[C@@H]23)cc1`, for which the IC50 is 11.5 µM and the z-score was -9.54.

Turning to `Cc1ccccc1-c1ccc(C2[C@@H]3CN(S(=O)(=O)c4cn(C)cn4)C[C@H]2N3)cc1` (some centres undefined), the half-maximal inhibitory concentration (IC50) was 3.9 µM and the z-score is -16.6.

Consider `Cc1ccccc1-c1ccc([C@H]2[C@@H](CO)N3C(=O)CN(C(=O)Cc4ccccn4)C[C@@H]23)cc1`, for which the half-maximal inhibitory concentration (IC50) was 3.2 µM and the z-score was -17.3.

On to `Cc1ccccc1-c1ccc(C2[C@@H]3CN(C(=O)C4CCOCC4)C[C@H]2N3)cc1` (some centres undefined), for which the IC50 is 2.2 µM and the z-score is -7.71.

`CO[C@@H]1CN(C)C(=O)c2cc(NC(=O)c3ccc(Oc4ccccc4)cc3)ccc2OC[C@@H](C)NC[C@H]1C`: the IC50 was 2.5 µM and the z-score is -13.5.

As for `CC(=O)N1CCCCN2[C@H](CO)[C@@H](c3ccc(-c4cccc(C)c4)cc3)[C@@H]2C1`, the IC50 is 16.5 µM and the z-score was -3.48.

Regarding `Cc1cccc(-c2ccc([C@@H]3[C@@H](CO)N4CCCCN(S(=O)(=O)c5cccs5)C[C@@H]34)cc2)c1`, the IC50 was 0.8 µM and the z-score was -3.77.

With `Cc1ccccc1-c1ccc([C@H]2[C@@H](CO)N3CCCCN(C(=O)CN4CCOCC4)C[C@@H]23)cc1`, the IC50 was 25 µM and the z-score was found to be 0.13.

With `Cc1cccc(-c2ccc([C@@H]3[C@@H](CO)N4CCCCN(S(=O)(=O)c5cccc(C)c5)C[C@@H]34)cc2)c1`, the 50% inhibitory concentration (IC50) is 1 µM and the z-score is -9.77.

As to `Cc1cccc(-c2ccc([C@@H]3[C@H]4CN(C(=O)c5cccnc5)CCCCN4[C@H]3CO)cc2)c1`, the IC50 is 6.6 µM and the z-score was -15.2.

In the case of `Cc1cccc(-c2ccc([C@@H]3[C@H](CO)N4CCCCN(S(=O)(=O)c5ccccc5F)C[C@@H]34)cc2)c1`, the IC50 is 0.55 µM and the z-score was -22.1.

Consider `OC[C@H]1[C@@H](c2ccc(C#Cc3ccccc3)cc2)[C@@H]2CN(Cc3cncnc3)CCCCN12`, for which the concentration for half-maximal inhibition (IC50) was 4.3 µM and the z-score is -16.2.

In the case of `CC(C)NC(=O)N1CCCCN2[C@@H](CO)[C@H](c3ccc(C#Cc4ccccc4F)cc3)[C@@H]2C1`, the half-inhibitory concentration (IC50) was 1.2 µM and the z-score is -12.7.

Turning to `Cc1cccc(-c2ccc([C@H]3[C@@H](CO)N4CCCCN(Cc5cccnc5)C[C@H]34)cc2)c1`, the concentration for half-maximal inhibition (IC50) was 10.7 µM and the z-score was -6.79.

Regarding `COc1ccccc1-c1ccc([C@@H]2[C@@H](C#N)N(C(=O)CN(C)C)[C@H]2CO)cc1`, the concentration for half-maximal inhibition (IC50) was 5.2 µM and the z-score was -12.4.

For `Cc1cccc(-c2ccc([C@@H]3[C@@H](CO)N4CCCCN(S(=O)(=O)c5cn(C)cn5)C[C@@H]34)cc2)c1`, the IC50 is 0.9 µM and the z-score was -17.5.

For `COc1cccc(C#Cc2ccc([C@@H]3[C@H](CO)N4C(=O)CN(C(C)=O)C[C@@H]34)cc2)c1`, the half-inhibitory concentration (IC50) is 3.7 µM and the z-score was -15.3.

Consider `Cc1ccccc1-c1ccc([C@@H]2[C@@H](CO)N3C(=O)CN(S(C)(=O)=O)C[C@@H]23)cc1`, for which the IC50 was 1.8 µM and the z-score was -12.7.

Consider `Cc1ccccc1-c1ccc([C@@H]2[C@@H](CO)N3CCCCN(S(C)(=O)=O)C[C@@H]23)cc1`, for which the IC50 is 1.3 µM and the z-score is -17.9.

Consider `Cc1ccccc1-c1ccc([C@@H]2[C@@H](CO)N3CCCCN(C(=O)c4cccnc4)C[C@@H]23)cc1`, for which the 50% inhibitory concentration (IC50) was 13 µM and the z-score is -7.98.

Turning to `Cc1ccccc1-c1ccc(C2[C@@H]3CN(Cc4cncnc4)C[C@H]2N3)cc1` (some centres undefined), the 50% inhibitory concentration (IC50) was 6.7 µM and the z-score was -2.59.

Consider `COc1ccccc1NC(=O)N1CCCCN2[C@H](CO)[C@@H](c3ccc(-c4cccc(C)c4)cc3)[C@@H]2C1`, for which the IC50 is 7.6 µM and the z-score is -2.84.

As to `COc1cccc(C#Cc2ccc([C@@H]3[C@H](CO)N4C(=O)CN(C(=O)Cc5cccnc5)C[C@@H]34)cc2)c1`, the concentration for half-maximal inhibition (IC50) was 6.2 µM and the z-score was -4.12.

As to `Cc1ccccc1-c1ccc([C@H]2[C@H](CO)N3C(=O)CN(C(=O)Cc4ccccn4)C[C@@H]23)cc1`, the IC50 is 4.4 µM and the z-score was -13.9.

`COc1ccccc1-c1ccc([C@H]2[C@H](C#N)N[C@@H]2CO)cc1`: the IC50 is 6.3 µM and the z-score is -12.

On to `O=C(NC1CCCC1)N1CCCCN2[C@H](C1)[C@H](c1ccc(/C=C/c3ccccc3)cc1)[C@@H]2CO`, for which the half-maximal inhibitory concentration (IC50) was 11.5 µM and the z-score was -13.2.

On to `Cc1cccc(-c2ccc([C@H]3[C@H](CO)N4C(=O)CN(C(=O)NC5CCCCC5)C[C@@H]34)cc2)c1`, for which the 50% inhibitory concentration (IC50) is 3.2 µM and the z-score was -16.3.

With `Cc1ccccc1-c1ccc([C@H]2[C@@H](CO)N3CCCCN(C(=O)NC4CCCC4)C[C@@H]23)cc1`, the half-maximal inhibitory concentration (IC50) is 0.4 µM and the z-score is -19.3.

For the compound `O=C(c1ccncc1)N1C[C@@H]2N[C@H](C1)C2c1ccc(/C=C/c2ccccc2)cc1` (some centres undefined), the half-inhibitory concentration (IC50) is 8.8 µM and the z-score is -13.8.

For the compound `Cc1ccccc1-c1ccc([C@H]2[C@@H](CO)N3CCCCN(C(=O)Nc4ccccc4)C[C@@H]23)cc1`, the IC50 is 2.9 µM and the z-score is -1.37.

With `COc1ccccc1C#Cc1ccc([C@H]2[C@H](CO)N3CCCCN(C(=O)C4CCC4)C[C@@H]23)cc1`, the half-maximal inhibitory concentration (IC50) was 2.7 µM and the z-score is -12.3.

For `Cc1cccc(-c2ccc([C@@H]3[C@@H](CO)N4CCCCN(C(=O)c5ccncc5)C[C@@H]34)cc2)c1`, the IC50 is 16.5 µM and the z-score was -3.14.

Turning to `Cc1ccccc1-c1ccc([C@H]2[C@H]3CN(C(=O)NC4CCCC4)CCCCN3[C@H]2CO)cc1`, the IC50 is 5.6 µM and the z-score is -5.69.

As for `Cc1ccccc1-c1ccc([C@@H]2[C@H]3CN(C(=O)Cc4ccccn4)CC(=O)N3[C@H]2CO)cc1`, the IC50 was 2 µM and the z-score was -17.7.

Take `Cc1ccccc1-c1ccc([C@H]2[C@@H](CO)N3CCCCN(S(C)(=O)=O)C[C@@H]23)cc1`: the IC50 is > 100 µM (inactive) and the z-score was -2.31.

With `Cc1cccc(-c2ccc([C@H]3[C@@H](CO)N4CCCCN(C(=O)c5cccnc5)C[C@H]34)cc2)c1`, the IC50 is 3.4 µM and the z-score is -17.

Regarding `Cc1ccccc1-c1ccc([C@@H]2[C@H](CO)N3C(=O)CN(C(=O)NC4CCCC4)C[C@@H]23)cc1`, the half-maximal inhibitory concentration (IC50) was 3.6 µM and the z-score was -8.13.

Consider `CCC(=O)N1[C@H](CO)[C@H](c2ccc(-c3ccccc3OC)cc2)[C@H]1CNC(C)=O`, for which the IC50 was 10.7 µM and the z-score is -8.24.

For `Cc1cccc(-c2ccc([C@@H]3[C@@H](CO)N4CCCCN(Cc5cncnc5)C[C@@H]34)cc2)c1`, the concentration for half-maximal inhibition (IC50) was 11.9 µM and the z-score was -6.65.

As for `Cc1ccccc1-c1ccc([C@H]2[C@H](CO)N3C(=O)CN(C(=O)NC4CCCC4)C[C@@H]23)cc1`, the half-maximal inhibitory concentration (IC50) is 0.37 µM and the z-score is -20.8.

Turning to `COc1ccccc1-c1ccc([C@H]2[C@@H](CO)N[C@@H]2CNC(=O)C2CCCC2)cc1`, the IC50 is 5.1 µM and the z-score is -10.9.

For the compound `CCC(=O)N1[C@H](CO)[C@H](c2ccc(-c3ccccc3OC)cc2)[C@@H]1CNC(C)=O`, the 50% inhibitory concentration (IC50) is 5.8 µM and the z-score was -15.

Regarding `Cc1cccc(-c2ccc([C@@H]3[C@@H](CO)N4CCCCN(S(=O)(=O)c5ccccc5C)C[C@@H]34)cc2)c1`, the IC50 is 0.1 µM and the z-score was -20.3.

For the compound `Cc1cccc(-c2ccc([C@@H]3[C@@H](CO)N4C(=O)CN(C(=O)NC5CCCCC5)C[C@@H]34)cc2)c1`, the IC50 was 0.67 µM and the z-score is -16.6.

As to `Cc1ccccc1-c1ccc([C@H]2[C@@H](CO)N3C(=O)CN(C(=O)Nc4ccc(F)cc4)C[C@H]23)cc1`, the IC50 is 0.47 µM and the z-score was -21.3.

Turning to `Cc1cccc(-c2ccc([C@@H]3[C@@H](CO)N4CCCCN(C(=O)NC(C)C)C[C@@H]34)cc2)c1`, the IC50 was 6.2 µM and the z-score is -5.51.

For `Cc1ccccc1-c1ccc([C@@H]2[C@H]3CN(C(=O)c4cccnc4)CC(=O)N3[C@H]2CO)cc1`, the IC50 is 2.6 µM and the z-score was -19.7.

With `CO[C@@H]1CN(C)C(=O)c2cc(NC(=O)c3ccc(Oc4ccccc4)cc3)ccc2OC[C@@H](C)NC[C@@H]1C`, the half-inhibitory concentration (IC50) was 2.4 µM and the z-score was -11.5.

In the case of `COc1cccc(-c2ccc([C@@H]3[C@@H](CO)N4CCCCN(C(=O)Cc5ccncc5)C[C@@H]34)cc2)c1`, the IC50 is 14.7 µM and the z-score was -2.33.

With `COc1cccc(-c2ccc([C@@H]3[C@@H](CO)N4CCCCN(CC5CC5)C[C@@H]34)cc2)c1`, the concentration for half-maximal inhibition (IC50) was 22.5 µM and the z-score is -2.88.

With `O=C(C1CCOCC1)N1CC(=O)N2[C@H](CO)[C@H](c3ccc(C#Cc4cccc(F)c4)cc3)[C@H]2C1`, the IC50 is 5.3 µM and the z-score was -19.3.

Regarding `Cc1cccc(-c2ccc([C@@H]3[C@H]4CN(C(=O)c5cccnc5)CC(=O)N4[C@H]3CO)cc2)c1`, the half-maximal inhibitory concentration (IC50) was 4.2 µM and the z-score is -17.7.

Turning to `Cc1ccccc1-c1ccc(C2[C@@H]3CN(C(=O)Cc4ccncc4)C[C@H]2N3)cc1` (some centres undefined), the IC50 is 2.2 µM and the z-score was -9.03.
